# Experimental data published in ChEMBL document CHEMBL6092194, “Development of membrane-targeting chalcone derivatives as antibacterial agents against multidrug-resistant bacteria” (Eur J Med Chem, 2024).
# What was measured:
# Bacillus subtilis = test: Antibacterial activity against penicillin-susceptible Bacillus subtilis ATCC9372 by broth microdilution assay; format: functional
# [1] = Selectivity index, ratio of HC50 for hemolytic activity in red blood cells (unknown origin) to MIC for antibacterial activity against penicillin-resistant Staphylococcus aureus ATCC43300; format: toxicity, cell-based, RBC; settings: read-out: Selectivity Index
# Acinetobacter baumannii = test: Antibacterial activity against Acinetobacter baumannii ATCC19606 by broth microdilution assay; format: functional
# Escherichia coli = test: Antibacterial activity against penicillin-susceptible Escherichia coli ATCC25922 by broth microdilution method; format: functional
# [2] = tested on: Staphylococcus epidermidis; test: Antibacterial activity against erythromycin-susceptible Staphylococcus epidermidis ATCC12228 by broth microdilution assay; format: functional
# Enterococcus faecalis = test: Antibacterial activity against vancomycin susceptible Enterococcus faecalis ATCC29212 by broth microdilution assay; format: functional
# [3] = Hemolytic activity in red blood cells (unknown origin); format: toxicity, cell-based, Erythrocyte
# Klebsiella pneumoniae = test: Antibacterial activity against Klebsiella pneumoniae ATCC10031 by broth microdilution assay; format: functional
# Staphylococcus aureus [4] = test: Antibacterial activity against erythromycin susceptible Staphylococcus aureus ATCC25923 by broth microdilution assay; format: functional
# Staphylococcus aureus [5] = test: Antibacterial activity against penicillin-resistant Staphylococcus aureus ATCC31007 by broth microdilution assay; format: functional
# Pseudomonas aeruginosa = test: Antibacterial activity against penicillin-susceptible Pseudomonas aeruginosa ATCC27853 by broth microdilution method; format: functional
# Staphylococcus aureus [6] = test: Antibacterial activity against penicillin-resistant Staphylococcus aureus ATCC43300 by broth microdilution assay; format: functional
Structure (SMILES),MIC (Bacillus subtilis) [µg/mL],selectivity ratio [1],MIC (Acinetobacter baumannii) [µg/mL],MIC (Escherichia coli) [µg/mL],MIC [2] [µg/mL],MIC (Enterococcus faecalis) [µg/mL],HC50 [3] [µg/mL],MIC (Klebsiella pneumoniae) [µg/mL],MIC (Staphylococcus aureus [4]) [µg/mL],MIC (Staphylococcus aureus [5]) [µg/mL],MIC (Pseudomonas aeruginosa) [µg/mL],MIC (Staphylococcus aureus [6]) [µg/mL]
CCCCCCNC(=O)C[N+](C)(C)CCCOc1ccc(/C=C/C(=O)c2ccc(OCCC[N+](C)(C)CC(=O)NCCCCCC)cc2)cc1.[Br-].[Br-],2,329,32,2,1,2,234,4,1,1,32,1
CCCC[N+](C)(C)CCCCCCCOc1ccc(C(=O)/C=C/c2ccccc2)cc1.[Br-],32,16.3,64,> 128,16,32,130,32,8,16,> 128,8
CCCCCCCCCCCC[N+](C)(C)CCCCCOc1ccc(C(=O)/C=C/c2ccccc2)cc1.[Br-],8,20.9,128,> 128,8,16,167,> 128,8,16,> 128,8
CCCCCC(=O)Nc1cc[n+](CCCOc2ccc(C(=O)/C=C/c3ccccc3)cc2)cc1.[Br-],4,> 320,> 128,> 128,> 128,8,> 1280,> 128,2,4,> 128,4
CCCCCCCC(=O)Nc1cc[n+](CCCOc2ccc(C(=O)/C=C/c3ccccc3)cc2)cc1.[Br-],2,443,128,32,8,4,887,16,2,2,> 128,2
CCCCCCCCCC[N+](C)(C)CCCOc1ccc(/C=C/C(=O)c2ccc(OCCC[N+](C)(C)CCCCCCCCCC)cc2)cc1.[Br-].[Br-],2,22,128,8,1,2,44,64,8,2,32,2
CCCC(=O)Nc1cc[n+](CCCOc2ccc(C(=O)/C=C/c3ccccc3)cc2)cc1.[Br-],> 128,> 10,> 128,> 128,> 128,> 128,> 1280,> 128,> 128,> 128,> 128,> 128
CCCCCCCC[N+](C)(C)CCCCCOc1ccc(C(=O)/C=C/c2ccccc2)cc1.[Br-],4,25.2,8,128,4,2,50.5,8,2,4,> 128,2
O=C(/C=C/c1ccccc1)c1ccc(OCCC[n+]2ccc(NC(=O)c3ccc4ccccc4c3)cc2)cc1.[Br-],> 128,> 10,> 128,> 128,> 128,> 128,> 1280,> 128,> 128,> 128,> 128,> 128
CCCCCCCCCCNC(=O)C[N+](C)(C)CCCOc1ccc(/C=C/C(=O)c2ccc(OCCC[N+](C)(C)CC(=O)NCCCCCCCCCC)cc2)cc1.[Br-].[Br-],32,1,128,> 128,64,> 128,66.1,> 128,32,16,> 128,64
CCCCCCCCCCCC[N+](C)(C)CCCOc1ccc(C(=O)/C=C/c2ccccc2)cc1.[Br-],4,55.1,64,128,8,> 128,220,64,4,16,> 128,4
CCCCCCCCCCCC[N+](C)(C)CCCCCCCOc1ccc(C(=O)/C=C/c2ccccc2)cc1.[Br-],16,3,> 128,> 128,16,32,47.4,> 128,16,64,> 128,16
CCCCCCCCCCCC(=O)Nc1cc[n+](CCCOc2ccc(C(=O)/C=C/c3ccccc3)cc2)cc1.[Br-],> 128,47.1,> 128,> 128,128,8,753,> 128,8,8,> 128,16
CCCCCCCCCCOc1cc[n+](CCCOc2ccc(/C=C/C(=O)c3ccc(OCCC[n+]4ccc(OCCCCCCCCCC)cc4)cc3)cc2)cc1.[Br-].[Br-],128,1.3,32,128,8,128,161,16,128,128,> 128,128
CCCC[N+](C)(C)CCCCCOc1ccc(C(=O)/C=C/c2ccccc2)cc1.[Br-],32,16.8,128,> 128,16,32,538,64,8,64,> 128,32
CCCCCCCCNC(=O)C[N+](C)(C)CCCOc1ccc(/C=C/C(=O)c2ccc(OCCC[N+](C)(C)CC(=O)NCCCCCCCC)cc2)cc1.[Br-].[Br-],4,17.4,16,8,8,4,69.5,32,4,8,128,4
CCCCCCCC[N+](C)(C)CCCOc1ccc(C(=O)/C=C/c2ccccc2)cc1.[Br-],2,17.2,8,64,1,8,17.2,4,1,4,64,1
